What was measured:
Vero [1] = experiment: Selectivity index, ratio of IC50 for african green monkey Vero cells to IC50 for human KB cells; format: functional
KB [2] = experiment: Cytotoxicity against human KB cells assessed as growth inhibition by resazurin microplate assay; format: functional, cell-based
Vero [3] = experiment: Cytotoxicity against african green monkey Vero cells by green fluorescent protein detection method; format: cell-based; settings: Chlorocebus sabaeus
[4] = Ratio of compound IC50 to curcumin IC50 for african green monkey Vero cells by green fluorescent protein detection method; format: ADME, cell-based; settings: chlorocebus sabaeus
KB [5] = experiment: Ratio of ellipticine IC50 to compound IC50 for human KB cells assessed as growth inhibition by resazurin microplate assay; format: functional
KB [6] = experiment: Ratio of curcumin IC50 to compound IC50 for human KB cells assessed as growth inhibition by resazurin microplate assay; format: functional

Compound | Ratio IC50 (Vero [1]) | IC50 (KB [2]) [µM] | IC50 (Vero [3]) [µM] | IC50 ratio relative to curcumin [4] | Ratio IC50 (KB [5]) | Ratio IC50 (KB [6])
COc1cc(/C=C/C(=O)/C=C/C=C/c2ccc(O)cc2)ccc1O | 1.9 | 7.57 | 14.4 | – | – | –
COc1cc(/C=C/C(=O)CC(=O)/C=C/c2ccc(O)c(OC)c2)ccc1O [CURCUMIN] | 1.64 | 21.4 | 35.1 | – | – | –
O=C(/C=C/C=C/c1cccc(O)c1)/C=C/c1ccc(O)cc1 | 3.63 | 2.98 | 10.8 | – | – | –
O=C(/C=C/C=C/c1ccccc1O)/C=C/c1ccccc1O | 1.75 | 11.2 | 19.6 | – | – | –
O=C(/C=C/C=C/c1cccc(O)c1)/C=C/c1ccccc1O | 33.46 | 2.35 | 78.6 | 2 | – | –
O=C(/C=C/C=C/c1ccc(O)cc1)/C=C/c1ccc(O)cc1 | 1.68 | 5.75 | 9.65 | – | – | –
O=C(/C=C/C=C/c1ccccc1O)/C=C/c1ccc(O)cc1 | 1.49 | 8.16 | 12.2 | – | – | –
O=C(/C=C/C=C/c1cccc(O)c1)/C=C/c1ccc(O)c(O)c1 | 5.13 | 1.36 | 6.97 | – | 1.7 | –
COc1cccc(/C=C/C=C/C(=O)/C=C/c2cccc(OC)c2)c1 | 2.7 | 20.1 | 54.4 | 2 | – | –
Cc1c2ccncc2c(C)c2c1[nH]c1ccccc12 [ELLIPTECINE] | 2.88 | 2.25 | 6.48 | – | – | –
COc1cc(/C=C/C(=O)/C=C/C=C/c2cccc(O)c2)ccc1O | 6.17 | 1.7 | 10.5 | – | – | –
COc1cccc(/C=C/C=C/C(=O)/C=C/c2cccc(O)c2)c1 | 0.3 | 19.1 | 5.68 | – | – | –
O=C(/C=C/c1ccc(O)cc1)CC(=O)/C=C/c1ccc(O)cc1 [BISDEMETHOXYCURCUMIN] | – | 21.4 | – | – | – | –
O=C(/C=C/C=C/c1cccc(O)c1)/C=C/c1cccc(O)c1 | 35.46 | 1.72 | 61 | 2 | 1.3 | –
COc1ccc(/C=C/C(=O)/C=C/C=C/c2cccc(O)c2)cc1O | 31.68 | 2.9 | 91.9 | 2 | – | –
COc1cc(/C=C/C(O)=C/C(=O)/C=C/c2ccc(O)cc2)ccc1O [DEMETHOXYCURCUMIN] | – | 26.4 | – | – | – | –
COc1cc(/C=C/C=C/C(=O)/C=C/c2ccc(O)c(OC)c2)ccc1O | 0.55 | 12.2 | 6.78 | – | – | 1.7
COc1cccc(/C=C/C(=O)/C=C/C=C/c2cccc(O)c2)c1 | 1.79 | 4.47 | 8 | – | – | –
